Data: patent US10189803B2, “Synthesis of therapeutic and diagnostic drugs centered on regioselective and stereoselective ring opening of aziridinium ions” (ILLINOIS INSTITUTE OF TECHNOLOGY, priority 2008, dated 2019)
Values joined by “and” are separate entries in the source; they are usually repeats but may differ in a detail not shown here. Equal values may be shown once. “Also recorded” adds a separate entry of the source. Blank lines part the entries; values can stand above or below the compound they belong to.

What was measured:
Hela cells = test: Antiproliferative activity, MTS assay, HeLa cells; type: cell-based, Human; conditions: for IC50: 72 h incubation, MTS; for cytotoxicity in HeLa cells over a series of concentrations (in words): FIG. 18
Procedure: (§1) Cell culture Human cervix HeLa cell line was obtained from ATCC (Rockville, Md.) and cultured in minimum essential medium (MEM) with L-glutamine (2 mM), Earle's BSS and sodium bicarbonate (1.5 g/L), supplemented with 10% fetal bovine serum (FBS), non-essential amino acids (0.1 mM), sodium pyruvate (1 mM) and antibiotic/antimycotic solution in a humidified atmosphere with 5% CO2 at 37° C. […] Lung fibroblast MRC-5 cell line was obtained from ATCC (Rockville, Md.) and cultured in ATCC formulated EMEM, supplemented with 10% fetal bovine serum (FBS) in a humidified atmosphere with 5% CO2 at 37° C.
(§2) Antiproliferative Activity. Cells were seeded onto 96-well plate at density of 2,000 cells for Hela cells or 5,000 cells for HT29 cells or 5,000 cells for MRC-5 per well in 0.1 mL complete medium and allowed to attach for 24 h. Varying concentrations of the test compounds in the final volume of 0.1 mL complete medium were then added in at least five series dilutions and incubated for 72 h. To measure cell proliferation, the Cell Titer 96 aqueous nonreactive cell proliferation assay (Promega Life Sciences, Madison, Wis.) was used according to the manufacturer's instructions. Briefly, MTS (2 mg/mL) and PMS (0.92 mg/ml) were mixed in a ratio of 20:1. An aliquot (20 μL) of the MTS/PMS mixture was added into each well, and the plate was incubated for 3 h at 37° C. Optical absorbance at 490 nm was then recorded with an enzyme-linked immunosorbent assay (ELISA) microtiter plate reader (Biotek). Each experiment was done at least in triplicate. Antiproliferative activity of the test compounds was expressed as the fraction of optical densities of treated the cells relative to the untreated solvent controls.^31 The data were plotted in GraphPad Prizm 3.0. Nonlinear regression analysis was used to determine IC50 values.
(§3) Cell culture. Human cervix HeLa cell line was obtained from ATCC (Rockville, Md.) and cultured in minimum essential medium (MEM) with L-glutamine (2 mM), Earle's BSS and sodium bicarbonate (1.5 g/L), supplemented with 10% fetal bovine serum (FBS), non-essential amino acids (0.1 mM), sodium pyruvate (1 mM) and antibiotic/antimycotic solution in a humidified atmosphere with 5% CO2 at 37° C.
as §2, with “activity.” for “Activity.”, “cells” for “cells or 5,000 cells for MRC-5”, “controls.” for “controls.^31”

HT29 cells = test: Antiproliferative activity, MTS assay, HT29 cells; type: cell-based, Human
Procedure: as §1, §2, §3
as §2, with “activity.” for “Activity.”, “cells” for “cells or 5,000 cells for MRC-5”, “controls.” for “controls.^31”

[1] = In vitro serum stability of 64Cu-labeled ligands in rat serum (radio-TLC); type: in vitro ADME; conditions: for Purity (serum stability, radio-TLC): 37° C., n=3; for 64Cu dissociated from the complex: in 24 hours; for stability in rat serum (in words): 48 hours
Procedure: The radiolabeling reactions of the ligands with ^64Cu were performed at elevated temperatures to ensure complete complex formation. At the no-carrier-added (NCA) level, all ligands were successfully labeled with ^64Cu in quantitative radiochemical yields (100%) as determined by radio-TLC. […] The ^64Cu-labeled complexes were freshly prepared for their serum stability evaluation, which was assessed by measuring the transfer of radionuclide from the complex to serum proteins over 24 hours or 48 hours.
In vitro serum stability: To 100 μL of rat serum, 10 μL of each ^64Cu-labeled complex was added (n=3 per complex). DOTA labeled with ^64Cu was used as a positive control. The resulting solutions were incubated at 37° C. in a water-bath. At 1 h, 4 h, 24 h and 48 h after the complex addition to rat serum, the solutions were sampled and analyzed by radio-TLC.

[2] = In vitro serum stability of 177Lu-labeled complexes (radio-TLC, HPLC); type: in vitro ADME, mouse; parameters: Radiolabled Complex, in vitro serum stability (Table 1): unit not given here; conditions: for Radiolabled Complex, in vitro serum stability (Table 1): 37° C.
Procedure: The new ligand DEPA was radiolabeled with ^177Lu and ^205/6Bi (a surrogate of ^212Bi and ^213Bi) and the corresponding radiolabeled complexes were evaluated for in vitro serum stability as described previously. For comparison, DOTA was also radiolabeled with ^177Lu. DEPA and DOTA (0.25 M NH4OAc buffer, pH 4.0) was radiolabeled with ^177Lu at 45° C. for 0.5 h to afford ^177Lu-DEPA (Rf=0.6) and ^177Lu-DOTA (Rf=0.4) in the respective radiochemical yield of 90% and 95% as determined by radio-TLC. DEPA (0.25 M NH4OAc buffer, pH 5.0) was successfully radiolabeled with ^205/6Bi at room temperature for 1 h to afford ^205/6Bi-DEPA in 96% yield (radio-TLC). ^177Lu-DOTA, 177Lu-DEPA, and ^205/6Bi-DEPA formed were purified from unbound ^205/6Bi by ion-exchange chromatography using a Chelex-100 column (1 mL volume bed, 100-200 mesh, Na^+ form, Bio-Rad, Richmond, Calif.) eluted with PBS (pH 7.4). In vitro serum stability of the purified radiolabeled complexes was performed to determine if DEPA or DOTA radiolabeled with ^177Lu or ^205/6Bi remained stable without loss of the radionuclide in human serum. This was assessed by measuring the transfer of radionuclide from the complex to serum proteins. […] However, ˜10% of the radioactivity was released from ^177Lu-DOTA over 4 days.
In vitro serum stability of the radiolabeled metal complexes. An aliquot of 3.7 MBq of the purified ^177Lu-labeled ligands was added to 0.5 mL of mouse serum (Sigma, St. Louis, Mo.) and 0.1% NaN3. The resulting mixture was incubated at 37° C. for 96 h. Aliquots of 2 μL of the resulting mixture were analyzed by radio-TLC and HPLC at different time points, 0, 0.25, 0.5, 1, 2, 4, 6, 24, 48, and 96 h of incubation. The stability of purified ^205/6Bi-DEPA was evaluated in human serum (Gemini Bioproducts, Woodland, Calif.) for 14 days by measuring the transfer of the radionuclide from the complex to serum proteins as monitored by SE-HPLC. Radiolabeled complexes were diluted to an appropriate volume that allowed for preparation of multiple samples containing 5-10 μCi and filter-sterilized using a Millex-GV 0.22 μm filter. 140 μL of this stock solution was then mixed with 1400 μL of sterile normal human serum or saline. Aliquots (200 μL) were drawn and separated into individual tubes for subsequent analysis using aseptic technique. The samples were incubated at 37° C., and at designated intervals, subjected to analysis by SE-HPLC. Samples were loaded onto the HPLC and eluted with PBS, pH 7.4 isocratically at 1 mL/min. […] Radioactivity associated with a transfer to serum proteins generally appeared between ˜4.5-8 min.

[3] = Homo sapiens, HT-29, 72 h incubation

Compound: O=C(O)CN1CCN(CC(=O)O)CCN(CC(Cc2ccc([N+](=O)[O-])cc2)N(CC(=O)O)CC(=O)O)CC1 (centres unmarked) [C-NETA]
IC50 (Hela cells): > 100 µM | cytotoxicity in HeLa cells over a series of concentrations (in words) (Hela cells): virtually no inhibitory activity | IC50 (HT29 cells; 72 h incubation): 45.7 ± 4 µM

Compound: O=C(O)CN1CCN(CCO)CCN(CC(=O)O)CC1.[64Cu] [^64Cu-NBEA]
Purity (serum stability, radio-TLC) ([1]; incubation time 1 h): 100 ± 0.0 | Purity (serum stability, radio-TLC) ([1]; incubation time 4 h): 100 ± 0.0 | Purity (serum stability, radio-TLC) ([1]; incubation time 24 h): 45.3 ± 9.8 | 64Cu dissociated from the complex [1]: 54%

Compound: O=C([O-])CN1CCN(CC(=O)[O-])CCN(CC(=O)[O-])CCN(CC(=O)[O-])CC1.[177Lu+3].[H+] [^177Lu-DOTA, reference compound]
radioactivity released from the complex in serum ([2]; over 4 days): ~10% and 11% | Radiolabled Complex, in vitro serum stability (Table 1) ([2]; serum, 0 h): 100 | Radiolabled Complex, in vitro serum stability (Table 1) ([2]; serum, 0.5 h): 99.0 | Radiolabled Complex, in vitro serum stability (Table 1) ([2]; serum, 1 h): 100.1 | Radiolabled Complex, in vitro serum stability (Table 1) ([2]; serum, 2 h): 99.3 | Radiolabled Complex, in vitro serum stability (Table 1) ([2]; serum, 4 h): 97.0 | Radiolabled Complex, in vitro serum stability (Table 1) ([2]; serum, 6 h): 97.5 | Radiolabled Complex, in vitro serum stability (Table 1) ([2]; serum, 24 h): 98.2 | Radiolabled Complex, in vitro serum stability (Table 1) ([2]; serum, 48 h): 91.2 | Radiolabled Complex, in vitro serum stability (Table 1) ([2]; serum, 96 h): 89.6

Compound: O=C(O)CN1CCN(CCN(CC(=O)O)CC(=O)O)CCN(CC(=O)O)CCN(CC(=O)O)CC1.[177Lu] [^177Lu-DEPA]
Radiolabled Complex, in vitro serum stability (Table 1) ([2]; serum, 0 h): 100 | Radiolabled Complex, in vitro serum stability (Table 1) ([2]; serum, 0.5 h): 100 | Radiolabled Complex, in vitro serum stability (Table 1) ([2]; serum, 1 h): 100 | Radiolabled Complex, in vitro serum stability (Table 1) ([2]; serum, 2 h): 100 | Radiolabled Complex, in vitro serum stability (Table 1) ([2]; serum, 4 h): 100 | Radiolabled Complex, in vitro serum stability (Table 1) ([2]; serum, 6 h): 100 | Radiolabled Complex, in vitro serum stability (Table 1) ([2]; serum, 24 h): 100 | Radiolabled Complex, in vitro serum stability (Table 1) ([2]; serum, 48 h): 100 | Radiolabled Complex, in vitro serum stability (Table 1) ([2]; serum, 96 h): 100 | serum stability of 177Lu complex (in words) ([2]; serum, up to 96 h): remained intact without being dissociated in serum; also recorded: stable in serum

Compound: CC(CCC(=O)Nc1ccc(CC(CN2CCN(CC(=O)O)CCN(CC(=O)O)CC2)NCC(=O)O)cc1)C1CCC2C3CCC4CC(O)CCC4(C)C3CC(O)C12C (centres unmarked) [DCA-NE3TA, [4-Carboxymethyl-7-(2-(carboxymethyl-amino)-3-{4-[4-(3,12-dihydroxy-10,13-dimethylhexadecahydro-cyclopenta[a]phenanthren-17-yl)-pentanoylamino]-phenyl}-propyl)-[1,4,7]triazonan-1-yl]-acetic acid]
sensitivity of HeLa cells relative to DTPA (Hela cells): approximately 40 fold | IC50 (Hela cells; Homo sapiens): 6.3 ± 0.1 µM | IC50 (HT29 cells; [3]): 7.5 ± 0.3 µM

IC50 (Hela cells): 8.85 ± 1.43 µM
Compound: Apo-N-NE3TA: ligand-transferin conjugate (apo) of N-NE3TA-NCS

Compound: O=C(O)CNC(Cc1ccc([N+](=O)[O-])cc1)CN1CCN(CC(=O)O)CCN(CC(=O)O)CC1 (centres unmarked) [C-NE3TA, {4-Carboxymethyl-7-[2-(carboxymethyl-amino)-3-(4-nitro-phenyl)-propyl]-[1,4,7]triazonan-1-yl}-acetic acid]
IC50 (Hela cells; Homo sapiens): 7.1 ± 0.1 µM | IC50 (HT29 cells; [3]): 5 ± 0.7 µM

Compound: O=C(O)CN1CCN(CCN(CC(=O)O)Cc2ccccc2)CCN(CC(=O)O)CC1 [Bn-NE3TA]
IC50 (Hela cells): 4.4 ± 0.9 µM | cytotoxicity in HeLa cells over a series of concentrations (in words) (Hela cells): highest activity against HeLa cells | IC50 (HT29 cells; 72 h incubation): 2.6 ± 0.2 µM

Compound: O=C(O)CN1CCN(CCN(CC(=O)O)Cc2ccccc2)CCN(CC(=O)O)CC1.[64Cu] [^64Cu-NE3TA-Bn]
Purity (serum stability, radio-TLC) ([1]; incubation time 1 h): 100 ± 0.0 | Purity (serum stability, radio-TLC) ([1]; incubation time 4 h): 100 ± 0.0 | Purity (serum stability, radio-TLC) ([1]; incubation time 24 h): 100 ± 0.0 | Purity (serum stability, radio-TLC) ([1]; incubation time 48 h): 100 ± 0.0 | stability in rat serum (in words) [1]: no measurable loss of radioactivity

Compound: O=C(O)CNCCN1CCN(CC(=O)O)CCN(CC(=O)O)CC1.[64Cu] [^64Cu-NE3TA]
Purity (serum stability, radio-TLC) ([1]; incubation time 1 h): 100 ± 0.0 | Purity (serum stability, radio-TLC) ([1]; incubation time 4 h): 100 ± 0.0 | Purity (serum stability, radio-TLC) ([1]; incubation time 24 h): 100 ± 0.0 | Purity (serum stability, radio-TLC) ([1]; incubation time 48 h): 100 ± 0.0 | stability in rat serum (in words) [1]: no measurable loss of radioactivity

IC50 (Hela cells; Homo sapiens): 8.4 ± 0.4 µM | IC50 (HT29 cells; [3]): 6.8 ± 0.4 µM
Compound: O=C(O)CN1CCN(CCN(CC(=O)O)Cc2ccc([N+](=O)[O-])cc2)CCN(CC(=O)O)CC1 [N-NE3TA]

Compound: O=C(O)CN1CCN(CCCO)CCN(CC(=O)O)CC1.[64Cu] [^64Cu-NBPA]
Purity (serum stability, radio-TLC) ([1]; incubation time 1 h): 99.6 ± 0.7 | Purity (serum stability, radio-TLC) ([1]; incubation time 4 h): 97.5 ± 4.4 | Purity (serum stability, radio-TLC) ([1]; incubation time 24 h): 70.5 ± 6.5 | 64Cu dissociated from the complex [1]: 29%

IC50 (Hela cells): 7.03 ± 0.09 µM
Compound: Holo-C-NE3TA: ligand-transferin conjugate (holo) of C-NE3TA-NCS

IC50 (Hela cells): 11.5 ± 0.21 µM
Compound: Holo-N-NE3TA: ligand-transferin conjugate (holo) of N-NE3TA-NCS

Compound: O=C(O)CNCCN1CCN(CC(=O)O)CCN(CC(=O)O)CC1 [NE3TA, (4-Carboxymethyl-7-[2-(carboxymethyl-amino)-ethyl]-[1,4,7]trizonan-1-yl)-acetic acid]
IC50 (Hela cells; Homo sapiens): 5.7 ± 0.3 µM | IC50 (HT29 cells; [3]): 4.7 ± 0.3 µM
